Experimental data published in patent US9034899B2, “Aryl, heteroaryl, and heterocycle substituted tetrahydroisoquinolines and use thereof” (Albany Molecular Research, Inc., priority 2009, dated 2015).
pIC50: −log10 of the molar value. Where two headings read alike, the source gives them in different places.

Experiments:
[1] = molecular target: hNET (Homo sapiens (Human), UniProt P23975); test: NET radioligand binding assay ([3H]nisoxetine, HEK-293 membranes); settings: for pIC50: (+)-enantiomers; for inhibition at 0.1 µM: 100 nM, NET IC50 with footnote *
Method: (§1) Recombinant HEK-293 cells expressing either the hSERT, hDAT, or hNET proteins were harvested from T-175 flasks as follows. The medium was removed from the flasks and the cells rinsed with HBSS without Ca and without Mg. The cells were then incubated for 5-10 minutes in 10 mM Tris-Cl, pH 7.5, 5 mM EDTA before the cells were lifted with a combination of pipetting and scraping, as needed. The cell suspension was collected into centrifuge bottles and homogenized for 30 seconds with a Polytron homogenizer. The suspension was centrifuged for 30 minutes at 32,000×g, 4° C. The supernatant was decanted and the pellet resuspended and homogenized in 50 mM Tris-Cl, pH 7.5, 1 mM EDTA for 10 seconds. The suspension was then centrifuged again for 30 minutes at 32,000×g, 4° C. The supernatant was decanted and the pellet resuspended in 50 mM Tris-Cl, pH 7.5, 1 mM EDTA and briefly homogenized. A Bradford assay (Bio-rad) was performed and the membrane preparation diluted to 2 mg/ml with 50 mM Tris-Cl, pH 7.5, 1 mM EDTA. Aliquots were prepared, and then frozen and stored at −80° C.
(§2) Compounds were dissolved in 100% DMSO at a concentration 100 times the desired highest assay concentration, serially diluted 1:3 in 100% DMSO, and 1.0 μl/well of each solution was dispensed to a Nunc polypropylene, round bottom, 384-well plate. 100% inhibition is defined with 1.0 μl/well of 10 mM desipramine dissolved in DMSO. 50 μl/well of a 2× membrane preparation (0.4 mg/ml in 50 mM Tris-Cl, pH 7.5, 120 mM NaCl, 5 mM KCl) and 50 μl/well of a 2× radioligand solution (4 nM [^3H]nisoxetine in 50 mM Tris-Cl, pH 7.5, 120 mM NaCl, 5 mM KCl) were added to the well and the reaction incubated for 1 hour at room temperature. The contents of the assay plate were then transferred to a Millipore MultiscreenHTS GF/B filter plate which was pretreated with 0.5% PEI for at least one hour. The plate was vacuum filtered and washed with 7 washes of 100 μl/well 50 mM Tris-Cl, pH 7.5, 120 mM NaCl, 5 mM KCl chilled to 4° C. The filtration and washing were completed in less than 90 seconds. The plates were air-dried overnight, 12 μl/well of MicroScint scintillation fluid added, and the plates counted in a Trilux.
(§3) The raw data was normalized to percent inhibition using control wells defining 0% (DMSO only) and 100% (selective inhibitor) inhibition which were run on each plate. Each plate was run in triplicate, and the concentration response curve thus generated was fit using the four-parameter dose response equation, Y=Bottom+(Top-Bottom)/(1+10^((LogIC50−X)*HillSlope)) in order to determine the IC50 value for each compound. The radioligand concentration chosen for each assay corresponds to the Kd concentration determined through saturation binding analysis for each assay.

[2] = molecular target: hDAT (Homo sapiens (Human), UniProt Q01959); test: DAT radioligand binding assay ([125I]RTI-55, HEK-293 membranes); settings: for inhibition at 0.1 µM: 100 nM, DAT IC50 with footnote *
Method: as §1
Compounds were dissolved in 100% DMSO at a concentration 100 times the desired highest assay concentration, serially diluted 1:3 in 100% DMSO, and 0.4 μl/well of each solution was dispensed to a Nunc polypropylene, round bottom, 384-well plate. 100% inhibition is defined with 0.4 μl/well of 1 mM GBR-12935 dissolved in DMSO. 20 ul/well of a 2× membrane preparation (12.5 μg/ml in 30 mM sodium phosphate buffer, pH 7.9 at 4° C.) and 20 μl/well of a 2× radioligand solution ([…] [^125I]RTI-55 in 30 mM sodium phosphate buffer, pH 7.9 at 4° C.) were added to the well and the reaction incubated for 1 hour at room temperature. The contents of the assay plate were then transferred to a Millipore MultiscreenHTS GF/B filter plate which was pretreated with 0.5% PEI for at least one hour. The plate was vacuum-filtered and washed with 7 washes of 100 μl/well 50 mM Tris-Cl, pH 7.5, 120 mM NaCl, 5 mM KCl chilled to 4° C. The filtration and washing were completed in less than 90 seconds. The plates were air-dried overnight, 12 μl/well of MicroScint scintillation fluid added, and the plates counted in a Trilux.
as §3

[3] = molecular target: hSERT (Homo sapiens (Human), UniProt P31645); test: SERT radioligand binding assay ([125I]RTI-55, HEK-293 membranes); settings: for inhibition at 0.1 µM: 100 nM, SERT IC50 with footnote *
Method: as §1, with “The” for “Recombinant HEK-293 cells expressing either the hSERT, hDAT, or hNET proteins were harvested from T-175 flasks as follows. The”
as §2, with “0.4” for “1.0”, “100% inhibition is defined with 1.0 μl/well of 10 mM desipramine dissolved in DMSO. 50 μl/well of a 2× membrane preparation (0.4 mg/ml in 50 mM Tris-Cl, pH 7.5, 120 mM NaCl, 5 mM KCl) and 50 μl/well of a 2× radioligand solution (4 nM [^3H]nisoxetine in 50 mM Tris-Cl, pH 7.5, 120 mM NaCl, 5 mM KCl) were added to the well and the reaction incubated for 1 hour at room temperature.” left out
as §3, with “Each” for “The raw data was normalized to percent inhibition using control wells defining 0% (DMSO only) and 100% (selective inhibitor) inhibition which were run on each plate. Each”

[4] = (+)-enantiomers, read-out: DAT IC50
[5] = (+)-enantiomers, read-out: SERT IC50

hSERT, sequence (P31645 whole entry): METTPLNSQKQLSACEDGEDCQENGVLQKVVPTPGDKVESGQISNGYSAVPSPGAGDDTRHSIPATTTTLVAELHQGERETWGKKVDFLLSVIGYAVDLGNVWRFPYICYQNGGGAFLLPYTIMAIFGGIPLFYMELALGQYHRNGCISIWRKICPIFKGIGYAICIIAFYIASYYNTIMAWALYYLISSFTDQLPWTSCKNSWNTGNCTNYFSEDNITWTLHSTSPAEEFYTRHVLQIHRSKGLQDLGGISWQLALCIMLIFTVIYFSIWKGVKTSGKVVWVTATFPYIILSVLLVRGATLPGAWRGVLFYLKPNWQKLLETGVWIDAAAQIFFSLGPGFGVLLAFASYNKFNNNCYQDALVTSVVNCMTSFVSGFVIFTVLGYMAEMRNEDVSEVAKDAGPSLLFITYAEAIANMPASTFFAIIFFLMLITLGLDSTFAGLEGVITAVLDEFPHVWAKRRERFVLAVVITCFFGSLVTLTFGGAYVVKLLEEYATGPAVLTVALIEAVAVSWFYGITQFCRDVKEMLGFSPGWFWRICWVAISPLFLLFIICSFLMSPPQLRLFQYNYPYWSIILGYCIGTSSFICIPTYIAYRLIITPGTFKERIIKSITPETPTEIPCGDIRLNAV
hNET, sequence (P23975 whole entry): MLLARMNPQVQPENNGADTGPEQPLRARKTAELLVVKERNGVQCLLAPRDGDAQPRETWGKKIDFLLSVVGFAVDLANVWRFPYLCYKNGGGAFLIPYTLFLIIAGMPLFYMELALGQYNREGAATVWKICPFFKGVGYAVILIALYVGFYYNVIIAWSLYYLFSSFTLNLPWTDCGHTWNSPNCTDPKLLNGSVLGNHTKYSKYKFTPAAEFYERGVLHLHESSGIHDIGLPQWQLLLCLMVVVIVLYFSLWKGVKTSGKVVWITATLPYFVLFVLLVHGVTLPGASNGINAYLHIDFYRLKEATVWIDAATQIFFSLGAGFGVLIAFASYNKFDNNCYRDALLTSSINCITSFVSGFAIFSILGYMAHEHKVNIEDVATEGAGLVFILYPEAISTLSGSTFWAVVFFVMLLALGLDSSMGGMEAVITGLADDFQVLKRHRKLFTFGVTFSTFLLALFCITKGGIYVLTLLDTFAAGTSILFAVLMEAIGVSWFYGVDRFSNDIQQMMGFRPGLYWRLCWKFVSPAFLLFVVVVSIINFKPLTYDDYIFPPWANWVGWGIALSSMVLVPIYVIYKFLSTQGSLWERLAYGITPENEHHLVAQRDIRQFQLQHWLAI
hDAT, sequence (Q01959 whole entry): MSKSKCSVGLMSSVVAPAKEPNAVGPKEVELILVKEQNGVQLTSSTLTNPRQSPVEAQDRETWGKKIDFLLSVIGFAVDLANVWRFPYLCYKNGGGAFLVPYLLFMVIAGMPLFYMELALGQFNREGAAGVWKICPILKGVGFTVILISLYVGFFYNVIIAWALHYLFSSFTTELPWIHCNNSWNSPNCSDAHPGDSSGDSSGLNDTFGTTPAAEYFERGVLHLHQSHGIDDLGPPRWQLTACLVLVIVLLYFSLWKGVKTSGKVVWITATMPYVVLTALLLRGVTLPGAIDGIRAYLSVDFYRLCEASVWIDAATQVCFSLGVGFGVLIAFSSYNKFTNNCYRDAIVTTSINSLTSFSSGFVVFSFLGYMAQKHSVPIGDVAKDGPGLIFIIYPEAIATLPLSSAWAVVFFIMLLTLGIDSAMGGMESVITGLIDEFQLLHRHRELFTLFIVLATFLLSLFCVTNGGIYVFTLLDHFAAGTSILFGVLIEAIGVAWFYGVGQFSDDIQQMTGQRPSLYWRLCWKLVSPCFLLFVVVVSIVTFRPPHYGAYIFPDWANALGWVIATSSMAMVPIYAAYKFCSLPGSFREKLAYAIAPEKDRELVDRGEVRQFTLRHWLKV

| inhibition at 0.1 µM [1] | inhibition at 0.1 µM [2] | inhibition at 0.1 µM [3] | Compound | pIC50 [1] | pIC50 [2] | pIC50 [3] | pIC50 [2, 4] | pIC50 [3, 5] |
| --- | --- | --- | --- | --- | --- | --- | --- | --- |
|  |  |  | CC1(C)NCC(c2ccc(Cl)c(Cl)c2)c2ccc(-c3ccc(C(F)(F)F)nn3)cc21 (single isomer, unassigned) [Example 10, 4-(3,4-dichlorophenyl)-7-(6-(trifluoromethyl)pyridazin-3-yl)-1,1-dimethyl-1,2,3,4-tetrahydroisoquinoline] | 6.26 |  |  |  |  |
|  |  |  | CC1(C)NCC(c2ccc(Cl)cc2)c2ccc(-c3ccc(C(F)(F)F)nn3)cc21 (single isomer, unassigned) [Example 35, 4-(4-chlorophenyl)-1,1-dimethyl-7-(6-(trifluoromethyl)pyridazin-3-yl)-1,2,3,4-tetrahydroisoquinoline] | 5.99 | 7.10 | 7.21 |  |  |
|  |  |  | CNc1ccc(-c2ccc3c(c2)CNCC3c2ccc(F)cc2)nn1 (single isomer, unassigned; (+)) [Example 3, (+)-6-(4-(4-fluorophenyl)-1,2,3,4-tetrahydroisoquinolin-7-yl)-N-methylpyridazin-3-amine] | 6.82 |  |  | 7.04 | 7.27 |
|  |  |  | FC(F)(F)c1ccc(-c2ccc3c(c2)NCCC3c2ccc(Cl)cc2)nn1 (single isomer, unassigned; (+)) [Example 4, (+)-4-(4-chlorophenyl)-7-(6-(trifluoromethyl)pyridazin-3-yl)-1,2,3,4-tetrahydroquinoline] | 7.33 |  |  | 6.86 | 7.67 |
|  |  |  | Nc1ccc(-c2ccc3c(c2)CNCC3c2ccc(Cl)cc2)nn1 (single isomer, unassigned; (+)) [Example 5, (+)-6-(4-(4-chlorophenyl)-1,2,3,4-tetrahydroisoquinolin-7-yl)pyridazin-3-amine] | 7.20 |  |  | 7.51 | 7.80 |
|  |  |  | Fc1cc2c(cc1-c1ccc(C(F)(F)F)nn1)CNCC2c1ccc(Cl)c(Cl)c1 (single isomer, unassigned; (+)) [Example 29, (+)-4-(3,4-dichlorophenyl)-6-fluoro-7-(6-(trifluoromethyl)pyridazin-3-yl)-1,2,3,4-tetrahydroisoquinoline] | 7.47 |  |  | 7.11 | 7.53 |
|  |  |  | Fc1cc2c(cc1-c1ccc(OC(F)F)nn1)CNCC2c1ccc(Cl)c(Cl)c1 (single isomer, unassigned; (+)) [Example 31, (+)-4-(3,4-dichlorophenyl)-7-(6-(difluoromethoxy)pyridazin-3-yl)-6-fluoro-1,2,3,4-tetrahydroisoquinoline] | 8.01 |  |  | 7.48 | 7.80 |
|  |  |  | Fc1cc2c(cc1-c1ccc3ncnn3c1)CNCC2c1ccc(Cl)c(Cl)c1 (single isomer, unassigned; (+)) [Example 39, (+)-7-([1,2,4]triazolo[1,5-a]pyridin-6-yl)-4-(3,4-dichlorophenyl)-6-fluoro-1,2,3,4-tetrahydroisoquinoline] | 7.15 |  |  | 7.08 | 7.85 |
|  |  |  | Cc1ccc(C2CCNc3cc(-c4ccc(C)nn4)ccc32)cc1 (stereo not shown) [Example 1, 7-(6-methylpridazin-3-yl)-4-p-tolyl-1,2,3,4-tetrahydroquinoline] | 6.76 |  |  | 7.19 | 7.55 |
|  |  |  | Nc1ccc(-c2ccc3c(c2)CNCC3c2ccc(F)cc2)nn1 (stereo not shown) [Example 2, 6-(4-(4-fluorophenyl)-1,2,3,4-tetrahydroisoquinolin-7-yl)pyridazin-3-amine] | 6.44 |  |  | 7.05 | 6.84 |
| 0% | 9% | 35% | CC1NCC(c2ccc(Cl)cc2)c2ccc(-c3ccc(Cl)nn3)cc21 (stereo not shown) [Example 6, 4-(4-Chloro-phenyl)-7-(6-chloro-pyridazin-3-yl)-1-methyl-1,2,3,4-tetrahydro-isoquinoline] |  |  |  |  |  |
| 0% | 16% | 35% | CC1NCC(c2ccc(Cl)cc2)c2ccc(-c3cccnn3)cc21 (stereo not shown) [Example 7, 4-(4-Chloro-phenyl)-7-(pyridazin-3-yl)-1-methyl-1,2,3,4-tetrahydro-isoquinoline] |  |  |  |  |  |
| 49% | 30% | 59% | COc1ccc(-c2ccc3c(c2)C(C)NCC3c2ccc(Cl)cc2)nn1 (stereo not shown) [Example 8, 4-(4-Chloro-phenyl)-7-(6-methoxy-pyridazin-3-yl)-1-methyl-1,2,3,4-tetrahydro-isoquinoline] |  |  |  |  |  |
|  |  |  | FC(F)(F)c1ccc(-c2ccc3c(c2)CNCC3c2ccc(Cl)c(Cl)c2)nn1 (stereo not shown) [Example 11, 4-(3,4-dichlorophenyl)-7-(6-(trifluoromethyl)pyridazin-3-yl)-1,2,3,4-tetrahydroisoquinoline] | 7.89 |  |  | 7.10 | 8.00 |
|  |  |  | N#Cc1cccc(-c2ccc3c(c2)CNCC3c2ccc(Cl)c(Cl)c2)c1 (stereo not shown) [Example 15, 3-(4-(3,4-dichlorophenyl)-1,2,3,4-tetrahydroisoquinolin-7-yl)benzonitrile] | 7.07 |  |  | 6.67 | 7.85 |
|  |  |  | CS(=O)(=O)c1ccc(-c2ccc3c(c2)CNCC3c2ccc(Cl)c(Cl)c2)cc1 (stereo not shown) [Example 16, 4-(3,4-dichlorophenyl)-7-(4-(methylsulfonyl)phenyl)-1,2,3,4-tetrahydroisoquinoline] | 7.89 |  |  | 7.11 | 7.70 |
|  |  |  | O=c1ccccn1-c1ccc2c(c1)CNCC2c1ccc(Cl)c(Cl)c1 (stereo not shown) [Example 17, 1-(4-(3,4-dichlorophenyl)-1,2,3,4-tetrahydroisoquinolin-7-yl)pyridin-2(1H)-one] | 6.38 |  |  | 7.07 | 8.16 |
|  |  |  | O=c1cccnn1-c1ccc2c(c1)CNCC2c1ccc(Cl)c(Cl)c1 (stereo not shown) [Example 18, 2-(4-(3,4-dichlorophenyl)-1,2,3,4-tetrahydroisoquinolin-7-yl)pyridazin-3(2H)-one] | 6.88 |  |  | 7.52 | 8.21 |
